In US20240246960A1 (adMare Therapeutics Society, priority 2021, published 2024):
Read-outs that look alike come from different tables or passages of the source.

Columns and labels:
[1] = target: T1, DNA-PK (Homo sapiens, UniProt P78527); assay: DNA-PK Assay for Biochemical Enzymatic Inhibition (ADP Glo Kinase assay); conditions: Table 1
T1 construct: purchased Invitrogen PR9107A
Description: A biochemical assay was performed to identify IC50 values against DNA-PK activity in a two-step reaction with a kinase reaction followed by ADP Glo™ Kinase assay Kit (Promega V9102).
Three-fold serial dilutions of compounds in DMSO were prepared in kinase assay buffer (50 mM HEPES pH 7.5, 20 mM MgCl2, 100 mM KCl, 50 μM DTT, 10 μg/ml calf thymus DNA, 0.01% Tween 20). Kinase assay buffer was used to prepare compound treatments to 0.02% DMSO (dimethyl sulphoxide) content. DMSO controls were prepared to produce a maximum and minimum luminescence signal for normalization. Substrate (Anaspec, AS-60210-5) and ATP (Promega V9102) and ATP mix was prepared by dilution in kinase assay buffer for 434.4 μM and 64.4 μM final assay concentrations, respectively. Compounds and control were added to 25 ng DNA-PK enzyme (Invitrogen, PR9107A) diluted in kinase buffer in assay plate (Corning 267459) and incubated for 15 minutes at room temperature prior to addition of substrate and ATP mix.
Throughout the assay, each time a reagent was added to the microplate, it was centrifuged for 1 minute at 1300 rcf. All reagents were added, and incubations carried out at room temperature. The reaction was then incubated for 60 minutes. ADP-ATP standards at 0, 4, 10, 40, 80, and 100% ADP (prepared as specified in the ADP Glo™ Kinase assay kit) were also added to the microplate at a volume equal to the total kinase reaction. The ADP Glo™ Kinase Assay kit was then used to quantify DNA-PK activity: following the 60-minute incubation, a 1:1 volume of ADP Glo reagent was added to all wells, then following a further 45-minute incubation, a 1:1 volume of Kinase Detection Reagent was added to all wells. After this two-step assay, plates were incubated in a Synergy-Neo2 plate reader for 30 minutes with gentle shaking, followed by endpoint luminescent read Luminescence data was normalized by subtracting the background signal and expressing all background-adjusted values as a percentage of the average maximum signal. The data was then expressed as percent inhibition by subtracting from 100% (i.e. maximum luminescent signal will be 0% inhibition) and the resulting data plotted against ten concentration points on a logarithmic scale, using GraphPad Prism. Non-linear regression analysis was performed on each concentration response curve and the log [inhibitor] vs response—variable slope (four parameters) equation was selected to generate IC50 values.

[2] = Microsomal stability assay, mouse liver microsomes; conditions: for microsomal CLint at 0.1 uM: male, CD-1, mouse, liver microsomes, pH 7.4, Microsomal Stability Mouse Clint, 0.1 mg/mL microsomes, 0.1 uM compound
[3] = target: T2, pDNA-PK ser2056 induction in HCT116 spheroids (Homo sapiens, UniProt P78527); assay: Multicellular tumour spheroid + radiation, pDNA-PK inhibition, HCT116; format: cell-based; conditions: 20 Gy
T2 construct: endogenous in cells; host or cells: HCT116 multicellular tumour spheroids
Description: Multicellular tumour spheroids determination of compound inhibition of pDNA-PK induction following radiation. Tumour spheroids were grown to approximately 0.5 mm in diameter and irradiated with 20 Gy in combination with inhibitor test compounds to determine their potency. Inhibitor concentration for 50% reduction in pDNA-PK induction (IC50) was determined via immunohistochemical staining in spheroid cryosections taken 2 hours following radiation.
Spheroid, Cell Line: […], Immunohistochemical endpoint, pDNA-PK inhibition, EC50 in μm.
(§1) Spheroid+radiation pDNA-PK. Radiation: 20 Gy. Drug: serial dilution 5 or 10 μM down to 3.5 nM (11 wells). Spheroids: 3-6 spheroids per well (300-500 μm diameter). 20% O2 and 5% CO2. 96 well plate format.
Protocol: pre-incubate 1 hours with drug, irradiate with 20 Gy, post-incubate 2 hours with drug, freeze and cryosection ×3 replicates.
Endpoint: fluorescent immunostin pDNA-PK ser2056 and image on microscope.
Analysis: determine EC50 concentration that decreases pDNA-PK induction by 50% after radiation.
Multicellular tumour spheroids determination of compound inhibition of pDNA-PK induction following radiation. Tumour spheroids were grown to approximately 0.5 mm in diameter and irradiated with 20 Gy in combination with inhibitor test compounds to determine their potency. Inhibitor concentration for 50% reduction in pDNA-PK induction (IC50) was determined via immunohistochemical staining in spheroid cryosections taken 2 hours following radiation. For cell survival endpoint 8 Gy radiation was used and 3 hours following radiation spheroids were dissociated, counted and plated for colony forming endpoint.
as §1, with “format. Endpoint: fluorescent immunostain pDNA-PK ser2056 and image on microscope. Analysis: determine EC50 concentrations that decreases pDNA-PK induction […] after irradiation.” for “format.”
Multicellular tumour spheroids were used to determine potency of test compounds in a 3D tissue environment using inhibition of pDNA-PK induction following radiation or cell survival as the endpoint. For the pDNA-PK endpoint HCT116 or FaDU tumour spheroids were grown to approximately 0.5 mm in diameter and irradiated with 20 Gy in combination with inhibitor test compounds to determine their potency. Experiments were carried out in 96 well plates containing 0.7 mls of MEM media containing 10% FBS and 10 mM glucose under 20% O2 & 5% CO2 at 37° C. Following dilution of compounds 1:1000 from DMSO stocks, compounds were serially diluted from 10 μM down to 3.5 nM and 5-10 spheroids added. 96 well plates were constantly stirred to avoid spheroids settling during the course of the experiment. The inhibitor concentration for 50% reduction in pDNA-PK induction (EC50) was determined via immunohistochemical staining in spheroid cryosections taken 2 hours following radiation using anti-pDNA-PK (ser 2056) and fixed immediately in formalin following sectioning. For cell survival endpoint 8 Gy radiation was used and, 3 hours following radiation, spheroids were dissociated, counted and plated for colony forming endpoint. Data presented in the table compound potency as EC50 [μM].

[4] = target: T3, DNA-PK phosphorylation at Serine 2056 (Homo sapiens, UniProt P78527); assay: Cellular Assay for Inhibition of DNA-PK Phosphorylation at Serine 2056 (FaDu cells, neocarzinostatin, sandwich ELISA); format: cell-based; conditions: Table 1
T3 construct: host or cells: FaDu
Summary of the method: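 Readout was pSer2056 and total DNA-PK, measured by sandwich ELISA on protein-normalized lysates. Prior to lysis, compound was applied to FaDu cells for 1 h (0.3% DMSO), followed by 2 h of 1 μg/mL neocarzinostatin. IC50 values were fitted from log concentration versus % inhibition normalized to DMSO and NCS controls.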

[5] = Example 7, spheroid, cell line HCT115 [sic], 20% O2, read-out: EC50 (pDNA-PK inhibition, immunohistochemical endpoint)
[6] = Example 9 Study 2, 20% O2, read-out: Spheroid Cell line: HCT116 Immunohistochemical endpoint pDNA-PK inhibition EC50
[7] = Example 8, spheroid, read-out: Cell line: HCT116 Immunohistochemical endpoint pDNA-PK inhibition EC50

| SMILES | IC50 [1] [nM] | Microsomal Stability (mouse) % rem. 60 min [2] | microsomal CLint at 0.1 uM [2] [µL/min/mg] | EC50 [3, 5] [µM] | EC50 [3, 6] [µM] | IC50 [4] [nM] | EC50 [3, 7] [µM] |
| --- | --- | --- | --- | --- | --- | --- | --- |
| FC(F)(F)c1cnn([C@H]2CC[C@@H](Oc3nc(N4CCOCC4)cc4ncccc34)CC2)c1 [Compound 17b, 4-(5-(((1s,4s)-4-(4-(trifluoromethyl)-1H-pyrazol-1-yl)cyclohexyl)oxy)-1,6-naphthyridin-7-yl)morpholine] | 10 to 150 | E (% remaining = 0-25%) | > 116 |  |  |  |  |
| c1cnc2cc(N3CCOCC3)nc(O[C@H]3CC[C@@H](n4cnnn4)CC3)c2c1 [Compound 17l, 4-(5-(((1s,4s)-4-(1H-tetrazol-1-yl)cyclohexyl)oxy)-1,6-naphthyridin-7-yl)morpholine] |  | E (% remaining = 0-25%) | > 116 |  |  |  |  |
| COc1nccnc1N[C@H]1CC[C@@H](Oc2nc(N3CCOCC3)cc3ncccc23)CC1 [Compound 39, 3-methoxy-N-((1s,4s)-4-((7-morpholino-1,6-naphthyridin-5-yl)oxy)cyclohexyl)pyrazin-2-amine] | < 0.5 |  |  | 1 to 10 | 1 to 10 | 100 to 1000 |  |
| COc1cnc(N[C@H]2CC[C@@H](Oc3nc(N4CCOCC4)cc4ncc(I)cc34)CC2)nc1 [Compound 201, N-((1s,4s)-4-((3-iodo-7-morpholino-1,6-naphthyridin-5-yl)oxy)cyclohexyl)-5-methoxypyrimidin-2-amine] | 1 to 10 |  |  | 10 to 100 | 10 to 100 | 10000 to 30000 |  |
| Clc1nc(N[C@H]2CC[C@@H](Oc3nc(N4CCOCC4)cc4ncccc34)CC2)c2occc2n1 [Compound 80b, 2-chloro-N-((1s,4s)-4-((7-morpholino-1,6-naphthyridin-5-yl)oxy)cyclohexyl)furo[3,2-d]pyrimidin-4-amine] | < 0.5 |  |  | 1 to 10 | 1 to 10 | 100 to 1000 |  |
| Cc1nccnc1N[C@H]1CC[C@@H](Oc2nc(N3CCOCC3)cc3ncccc23)CC1 [Compound 36, 3-methyl-N-((1s,4s)-4-((7-morpholino-1,6-naphthyridin-5-yl)oxy)cyclohexyl)pyrazin-2-amine] | 0.5 to 1 |  |  | 1 to 10 | 1 to 10 | 100 to 1000 |  |
| CCS(=O)(=O)Nc1cnc2cc(N3CCOCC3)nc(O[C@H]3CC[C@@H](Nc4ncccn4)CC3)c2c1 [Compound 188, N-(7-morpholino-5-(((1s,4s)-4-(pyrimidin-2-ylamino)cyclohexyl)oxy)-1,6-naphthyridin-3-yl)ethanesulfonamide] | < 0.5 |  |  | 1 to 10 | 1 to 10 | 100 to 1000 |  |
| O=C(N[C@H]1CC[C@@H](Oc2nc(N3CCOCC3)cc3ncc(Br)cc23)CC1)c1ncccn1 [Compound 176, N-((1s,4s)-4-((3-bromo-7-morpholino-1,6-naphthyridin-5-yl)oxy)cyclohexyl)pyrimidine-2-carboxamide] | 0.5 to 1 |  |  | 1 to 10 | 1 to 10 | 100 to 1000 |  |
| O=C(N[C@H]1CC[C@@H](Oc2nc(N3CCOCC3)cc3ncccc23)CC1)c1ccccc1 [Compound 110, N-((1s,4s)-4-((7-Morpholino-1,6-naphthyridin-5-yl)oxy)cyclohexyl)benzamide] | < 0.5 |  |  | 1 to 10 | 1 to 10 | < 100 | 1 to 10 |
| Cc1cc2ncnn2cc1N[C@H]1CC[C@@H](Oc2nc(N3CCOCC3)cc3ncccc23)CC1 [Compound 91, 7-Methyl-N-((1s,4s)-4-((7-morpholino-1,6-naphthyridin-5-yl)oxy)cyclohexyl)-[1,2,4]triazolo[1,5-a]pyridin-6-amine] | 1 to 10 |  |  | 10 to 100 | 10 to 100 | 1000 to 10000 |  |
| CCOCCOc1cnc(N[C@H]2CC[C@@H](Oc3nc(N4CCOCC4)cc4ncc(Br)cc34)CC2)nc1 [Compound 18b, N-((1s,4s)-4-((3-Bromo-7-morpholino-1,6-naphthyridin-5-yl)oxy)cyclohexyl)-5-(2-ethoxyethoxy)pyrimidin-2-amine] | 1 to 10 |  |  | 1 to 10 | 1 to 10 | 10000 to 30000 | 1 to 10 |
| Ic1cnc(N[C@H]2CC[C@@H](Oc3nc(N4CCOCC4)cc4ncccc34)CC2)nc1 [Compound 42, 5-iodo-N-((1s,4s)-4-((7-morpholino-1,6-naphthyridin-5-yl)oxy)cyclohexyl)pyrimidin-2-amine] | 0.5 to 1 |  |  | 1 to 10 | 1 to 10 | 100 to 1000 |  |
| N#Cc1cnc2cc(N3CCOCC3)nc(O[C@H]3CC[C@@H](Nc4ncccn4)CC3)c2c1 [Compound 200a, 7-morpholino-5-(((1s,4s)-4-(pyrimidin-2-ylamino)cyclohexyl)oxy)-1,6-naphthyridine-3-carbonitrile] | 0.5 to 1 |  |  | 1 to 10 | 1 to 10 | 100 to 1000 |  |
| CCCC(=O)N[C@H]1CC[C@@H](Oc2nc(N3CCOCC3)cc3ncccc23)CC1 [Compound 103, N-((1s,4s)-4-((7-Morpholino-1,6-naphthyridin-5-yl)oxy)cyclohexyl)butyramide] | 1 to 10 |  |  | 10 to 100 | 10 to 100 | 100 to 1000 | 10 to 100 |
| Clc1cnc(N[C@H]2CC[C@@H](Oc3nc(N4CCOCC4)cc4ncccc34)CC2)nc1 [Compound 41, 5-chloro-N-((1s,4s)-4-((7-morpholino-1,6-naphthyridin-5-yl)oxy)cyclohexyl)pyrimidin-2-amine] | 0.5 to 1 |  |  | 1 to 10 | 1 to 10 | 100 to 1000 |  |
